Data on 16 molecules can be found in patent US20120129811A1, “TRICYCLIC INHIBITORS OF PRO-MATRIX METALLOPROTEINASE ACTIVATION” (priority 2010, published 2012).

The target of test [1] is T1, proMMP9(20-445;ΔFnII) (SEQ ID NO:6) (Homo sapiens, UniProt P14780, DEL216-390).
T1 construct: start methionine (N); made in house; host or cells: E. coli BL21(DE3) RIL
T1 sequence (P14780 with tags, fused parts or gaps DEL216-390): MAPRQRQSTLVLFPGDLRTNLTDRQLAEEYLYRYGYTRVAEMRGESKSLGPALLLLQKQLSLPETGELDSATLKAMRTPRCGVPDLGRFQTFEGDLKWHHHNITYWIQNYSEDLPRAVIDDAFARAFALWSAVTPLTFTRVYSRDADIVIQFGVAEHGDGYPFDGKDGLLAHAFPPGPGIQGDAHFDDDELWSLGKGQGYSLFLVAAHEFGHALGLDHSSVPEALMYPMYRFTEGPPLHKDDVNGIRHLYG
Kind of test: ThermoFluor binding assay with proMMP9(20-445;ΔFnII). How it is done:
(§1) The ThermoFluor® (TF) assay is a 384-well plate-based binding assay that measures thermal stability of proteins (Biomol Screen 2001, 6, 429-40; Biochemistry 2005, 44, 5258-66). The experiments were carried out using instruments available from Johnson & Johnson Pharmaceutical Research & Development, LLC. TF dye used in all experiments was […] (1,8-ANS) (Invitrogen: A-47).
(§2) Compounds were arranged in a pre-dispensed plate (Greiner Bio-one: 781280), wherein compounds were serially diluted in 100% DMSO across 11 columns within a series. Columns 12 and 24 were used as DMSO reference and contained no compound. For multiple compound concentration-response experiments, the compound aliquots (50 nL) were robotically predispensed directly into black 384-well polypropylene PCR microplates (Abgene: TF-0384/k) using a Cartesian Hummingbird liquid handler (DigiLab, Holliston, Mass.). Following compound dispense, protein and dye solutions were added to achieve the final assay volume of 3 μL. The assay solutions were overlayed with 1 μL of silicone oil (Fluka, type DC 200: 85411) to prevent evaporation.
(§3) Assay plates were robotically loaded onto a thermostatically controlled PCR-type thermal block and then heated from 40 to 90° C. at a ramp-rate of 1° C./min for all experiments. Fluorescence was measured by continuous illumination with UV light (Hamamatsu LC6) supplied via fiber optics and filtered through a band-pass filter (380-400 nm; >60D cutoff). Fluorescence emission of the entire 384-well plate was detected by measuring light intensity using a CCD camera (Sensys, Roper Scientific) filtered to detect 500±25 nm, resulting in simultaneous and independent readings of all 384 wells. A single image with 20-sec exposure time was collected at each temperature, and the sum of the pixel intensity in a given area of the assay plate was recorded vs temperature and fit to standard equations to yield the Tm (J Biomol Screen 2001, 6, 429-40).
(§4) Thermodynamic parameters necessary for fitting compound binding for each proMMP were estimated by differential scanning calorimetry (DSC) and from ThermoFluor® data. The heat capacity of unfolding for each protein was estimated from the molecular weight and from ThermoFluor® dosing data.
ThermoFluor® with proMMP9(20-445; ΔFnII (SEQ ID NO:6)
The protein sample preparations included a desalting buffer exchange step via a PD-10 gravity column (GE Healthcare). The desalting buffer exchange was performed prior to diluting the protein to the final assay concentration of 2.8 μM proMMP9(20-445;ΔFnII) (SEQ ID NO:6). The concentration of proMMP9(20-445;ΔFnII) (SEQ ID NO:6) was determined spectrophotometrically based on a calculated extinction coefficient of ε280=39880 M^−1 cm^−1, a calculated molecular weight of 28.2 kDa, and calculated pI of 5.5. ThermoFluor® reference conditions were define as follows: 80 μg/mL (2.8 μM) proMMP9(20-445;ΔFnII) (SEQ ID NO:6), 50 μM 1,8-ANS, pH 7.0 Buffer (50 mM HEPES pH 7.0, 100 mM NaCl, 0.001% Tween-20, 2.5 mM MgCl2, 300 μM CaCl2). The thermodynamic parameters for proMMP9(20-445;ΔFnII) (SEQ ID NO:6) are as follows: Tm (° C.)=72 (+/−0.1), ΔUH(Tm) (cal mol^−1)=160000(+/−5000), ΔUSTm (cal mol^−1 K^−1)=434, ΔUCp (cal mol^−1 K^−1)=2400.
A general note: Differential scanning fluorimetry follows unfolding on heating by fluorescence.

The target of test [2] is T2, proMMP9(67-444;ΔFnII) (SEQ ID NO:5) (Homo sapiens, UniProt P14780, DEL216-390).
T2 construct: start methionine (N); made in house; host or cells: E. coli BL21(DE3) RIL
T2 sequence (P14780 with tags, fused parts or gaps DEL216-390): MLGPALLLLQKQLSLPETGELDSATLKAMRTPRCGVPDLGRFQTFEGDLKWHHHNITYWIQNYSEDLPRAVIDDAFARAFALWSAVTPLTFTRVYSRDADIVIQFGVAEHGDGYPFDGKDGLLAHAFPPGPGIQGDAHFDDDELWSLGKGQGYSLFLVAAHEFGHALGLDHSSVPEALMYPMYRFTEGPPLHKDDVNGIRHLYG
Kind of test: ThermoFluor binding assay with proMMP9(67-444;ΔFnII). How it is done:
as §1, §2, §3, §4
ThermoFluor® with proMMP9(67-444;ΔFnM (SEQ ID NO:5)
The protein sample preparations had to include a desalting buffer exchange step via a PD-10 gravity column (GE Healthcare). The desalting buffer exchange was performed prior to diluting the protein to the final assay concentration of 3.5 μM proMMP9(67-444;ΔFnII) (SEQ ID NO:5). The concentration of proMMP9(67-444;ΔFnII) (SEQ ID NO:5) was determined spectrophotometrically based on a calculated extinction coefficient of ε280=33900 M^−1 cm^−1, a calculated molecular weight of 22.6 kDa, and calculated pI of 5.20. ThermoFluor® reference conditions were defined as follows: 80 μg/mL (3.5 μM) proMMP9(67-444;ΔFnII) (SEQ ID NO:5), 50 μM 1,8-ANS, pH 7.0 Buffer (50 mM HEPES pH 7.0, 100 mM NaCl, 0.001% Tween-20, 2.5 mM MgCl2, 300 μM CaCl2). The thermodynamic parameters for proMMP9(67-444;ΔFnII) (SEQ ID NO:5) are as follows: Tm (° C.)=63 (+/−0.1), ΔUH(Tm)(cal mol^−1)=105000(+/−5000), ΔUS(Tm) (cal mol^−1 K^−1)=450, ΔUCp (cal mol^−1 K^−1)=2000.

Test [3] deals with T3, full-length proMMP9(1-707) activation by catalytic MMP3 (Homo sapiens, UniProt P14780, R574P).
T3 construct: made in house; host or cells: proMMP9: HEK293 (secreted); MMP3: E. coli
Kind of test: proMMP9/MMP3 P126 Activation Assay. Format: biochemical. The procedure: proMMP9/MMP3 P126 Activation Assay
The reaction volume was 50 μL. […] Reactivity of residual MMP3 towards P-126 substrate was minimal under these conditions.

Each structure is given as a SMILES string. pIC50, pKd: −log10 of the molar value. Structures can show the parent of a compound that is named as a salt. Bounds are passed on as bounds.

T3 sequence (P14780 20-707 R574P): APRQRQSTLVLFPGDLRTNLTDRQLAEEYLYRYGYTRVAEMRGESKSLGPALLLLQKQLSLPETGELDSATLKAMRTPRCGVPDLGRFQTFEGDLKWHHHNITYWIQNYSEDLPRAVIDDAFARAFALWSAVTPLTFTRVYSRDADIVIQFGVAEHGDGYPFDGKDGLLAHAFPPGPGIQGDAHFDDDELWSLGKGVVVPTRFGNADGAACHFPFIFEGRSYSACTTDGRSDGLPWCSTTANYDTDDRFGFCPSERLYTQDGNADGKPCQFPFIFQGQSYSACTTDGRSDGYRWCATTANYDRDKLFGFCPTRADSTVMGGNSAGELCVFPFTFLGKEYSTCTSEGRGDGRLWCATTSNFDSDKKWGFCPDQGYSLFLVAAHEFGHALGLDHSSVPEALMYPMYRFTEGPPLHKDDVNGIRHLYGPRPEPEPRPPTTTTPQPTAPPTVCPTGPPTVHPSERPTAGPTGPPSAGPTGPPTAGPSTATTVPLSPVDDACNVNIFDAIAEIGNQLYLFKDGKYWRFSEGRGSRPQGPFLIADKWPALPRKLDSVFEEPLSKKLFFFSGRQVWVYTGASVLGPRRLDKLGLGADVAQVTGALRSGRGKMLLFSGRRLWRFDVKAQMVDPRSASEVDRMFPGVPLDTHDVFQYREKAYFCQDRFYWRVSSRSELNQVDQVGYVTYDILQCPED

The pKd is the negative decadic logarithm of the Kd, by convention in mol/L. What is called pIC50 is the negative decadic logarithm of the IC50, by convention in mol/L. Low values mean a large IC50, high ones a small IC50. For the molecule `COc1ccc(C(F)(F)F)cc1Nc1nc2c(ccc3c2ncn3C)s1` [Example 50, (2-Methoxy-5-trifluoromethyl-phenyl)-(6-methyl-6H-imidazo[4′,5′: 3,4]benzo[2,1-d]thiazol-2-yl)-amine.HCl], the pKd in test [1] was 5.52; in test [2], 5.82. Besides, in test [3], the pIC50 was 5.96.
Taken in the same sequence, the figures for `COc1c(Nc2nc3c(ccc4c3ncn4C)s2)cc(C(N)=O)cc1C(F)(F)F` [Example 53, 4-Methoxy-3-(6-methyl-6H-imidazo[4′,5′:3,4]benzo[2,1-d]thiazol-2-ylamino)-5-trifluoromethyl-benzamide.HCl] were 5.40, 5.21 and 5.38.
Taken in the same sequence, the figures for `Cn1cnc2c3nc(Nc4cc(S(N)(=O)=O)ccc4OC(F)(F)F)sc3ccc21` [Example 64, 3-(6-Methyl-6H-imidazo[4′,5′:3,4]benzo[2,1-d]thiazol-2-ylamino)-4-trifluoromethoxy-benzenesulfonamide.HCl] were 6.01, 6.05 and 6.82.
`Cn1cnc2c3nc(Nc4cc(C(N)=O)ccc4OC(F)(F)F)sc3ccc21` [Example 65, 3-(6-Methyl-6H-imidazo[4′,5′:3,4]-benzo[2,1-d]thiazol-2-ylamino)-4-trifluoromethoxy-benzamide.HCl]: the pKd is 7.11 in test [1] and 6.60 in test [2]. In test [3], this molecule gave a pIC50 of 6.82.
The corresponding values for `CCOP(=O)(OCC)c1ccc(OC)c(Nc2nc3c(ccc4c3ncn4C)s2)c1` [Example 66, [4-Methoxy-3-(6-methyl-6H-imidazo[4′,5′:3,4]benzo[2,1-d]thiazol-2-ylamino)-phenyl]-phosphonic acid diethyl ester.HCl] are 5.23, 5.77 and 5.64.
Taken in the same sequence, the figures for `COc1ccc(C#N)cc1Nc1nc2c(ccc3c2ncn3C)s1` [Example 67, 4-Methoxy-3-(6-methyl-6H-imidazo[4′,5′:3,4]benzo[2,1-d]thiazol-2-ylamino)-benzonitrile.HCl] were 7.06, 7.11 and 7.00.
With `COc1ccc(P(=O)(O)O)cc1Nc1nc2c(ccc3c2ncn3C)s1` [Example 68, [4-Methoxy-3-(6-methyl-6H-imidazo[4′,5′:3,4]benzo[2,1-d]thiazol-2-ylamino)-phenyl]-phosphonic acid.HCl], the values for the pKd in test [1] and in test [2] were 5.12 and 4.92, respectively. In test [3], this molecule had a pIC50 of 5.12.
Turning to `COc1ccc(Br)cc1Nc1nc2c(ccc3c2ncn3C)s1` [Example 69, (5-Bromo-2-methoxy-phenyl)-(6-methyl-6H-imidazo[4′,5%3,4]benzo[2,1-d]thiazol-2-yl)-amine.HCl], the pKd in test [1] is 6.37; in test [2], 6.66. This molecule also showed a pIC50 in test [3] of 6.52.
Regarding `COc1ccc(-c2cn[nH]c2)cc1Nc1nc2c(ccc3c2ncn3C)s1` [Example 70, [2-Methoxy-5-(1H-pyrazol-4-yl)-phenyl]-(6-methyl-6H-imidazo[4′,5%3,4]benzo[2,1-d]thiazol-2-yl)-amine.HCl], the pKd was 6.25 in test [1] and 6.92 in test [2]. The molecule also showed a pIC50 in test [3] of 6.51.
For `CCN(CC)S(=O)(=O)c1ccc(OC)c(Nc2nc3c(ccc4c3ncn4C)s2)c1` [Example 71, N,N-Diethyl-4-methoxy-3-(6-methyl-6H-imidazo[4′,5′:3,4]-benzo[2,1-d]thiazol-2-ylamino)-benzenesulfonamide.HCl], the results for the pKd in test [1] and in test [2] were 5.70 and 5.80, respectively. Also, the pIC50 in test [3] was 5.82.
The corresponding values for `COc1ccc(S(=O)(=O)N2CCCC2)cc1Nc1nc2c(ccc3c2ncn3C)s1` [Example 72, [2-Methoxy-5-(pyrrolidine-1-sulfonyl)-phenyl]-(6-methyl-6H-imidazo[4′,5′:3,4]benzo[2,1-d]thiazol-2-yl)-amine.HCl] are 5.68, 5.80 and 6.34.
`Cn1cnc2c(Nc3nc4c(ccc5c4ncn5C)s3)cccc21` [Example 73, (1-Methyl-1H-benzoimidazol-4-yl)-(6-methyl-6H-imidazo[4′,5′:3,4]-benzo[2,1-d]thiazol-2-yl)-amine.HCl]: the pKd in test [1] is 4.89; in test [2], 5.12. Further, the pIC50 in test [3] is 5.24.
For `COc1ncccc1Nc1nc2c(ccc3c2ncn3C)s1` [Example 74, (2-Methoxy-pyridin-3-yl)-(6-methyl-6H-imidazo[4′,5′:3,4]-benzo[2,1-d]thiazol-2-yl)-amine.HCl], the pKd in test [1] was 5.22; in test [2], 5.43. The same molecule had a pIC50 in test [3] of 5.33.
Taken in the same sequence, the figures for `Cn1cnc2c3nc(Nc4cccnc4)sc3ccc21` [Example 75, (6-Methyl-6H-imidazo[4′,5′:3,4]-benzo[2,1-d]thiazol-2-yl)-pyridin-3-yl-amine.HCl] were under 4.02, 4.82 and about 4.74.
As for `COc1ccc([N+](=O)[O-])cc1Nc1nc2c(ccc3c2ncn3C)s1` [Example 76, (2-Methoxy-5-nitro-phenyl)-(6-methyl-6H-imidazo[4′,5′:3,4]benzo[2,1-d]thiazol-2-yl)-amine.HCl], the pKd in test [1] is 6.28; in test [2], 6.42. In test [3], this molecule showed a pIC50 of 7.00.
The corresponding values for `Cn1cnc2c3nc(Nc4ccccc4[N+](=O)[O-])sc3ccc21` [Example 77, (6-Methyl-6H-imidazo[4′,5′:3,4]-benzo[2,1-d]thiazol-2-yl)-(2-nitro-phenyl)-amine.HCl] are 5.49, 5.59 and 5.96.
